ChEMBL document CHEMBL2163292, “1,2,3-Triazole-containing uracil derivatives with excellent pharmacokinetics as a novel class of potent human deoxyuridine triphosphatase inhibitors” (J Med Chem, 2012)

Columns and labels:
[1] = molecular target: T1, Deoxyuridine 5'-triphosphate nucleotidohydrolase, mitochondrial (Homo sapiens, UniProt P33316); assay: Inhibition of human dUTPase assessed as reduction in [5-3H]dUMP production incubated for 15 mins by HPLC
T1 sequence (P33316 whole entry): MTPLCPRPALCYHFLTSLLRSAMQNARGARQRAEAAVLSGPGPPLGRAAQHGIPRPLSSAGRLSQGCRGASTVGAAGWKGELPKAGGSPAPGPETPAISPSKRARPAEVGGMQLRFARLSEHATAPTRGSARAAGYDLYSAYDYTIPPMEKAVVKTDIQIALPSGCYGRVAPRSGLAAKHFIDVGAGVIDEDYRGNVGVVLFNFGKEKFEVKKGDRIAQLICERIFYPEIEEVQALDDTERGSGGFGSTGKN

[2] = Cytotoxicity against human HeLaS3 cells incubated for 72 hrs by crystal violet assay; type: functional, cell-based; settings: HeLa S3, 72 h
[3] = Half life in Balb/cA mouse at 50 mg/kg, po administered as single dose by reverse-phase ultra performance liquid chromatography; type: ADME, organism-based; design: dose 50 mg/kg, route oral; settings: in vivo
Mus musculus [4] = assay: Metabolic stability in Balb/cA mouse assessed as metabolite formation at 50 mg/kg, po administered as single dose measured after 0.5 hrs by reverse-phase ultra performance liquid chromatography; type: ADME, organism-based; design: dose 50 mg/kg, route oral; settings: in vivo
[5] = AUC (0 to t) in Balb/cA mouse at 50 mg/kg, po administered as single dose by reverse-phase ultra performance liquid chromatography; type: ADME, organism-based; design: dose 50 mg/kg, route oral; settings: plasma
[6] = Cmax in Balb/cA mouse at 50 mg/kg, po administered as single dose by reverse-phase ultra performance liquid chromatography; type: ADME, organism-based; design: dose 50 mg/kg, route oral; settings: in vivo
[7] = Tmax in Balb/cA mouse at 50 mg/kg, po administered as single dose by reverse-phase ultra performance liquid chromatography; type: ADME, organism-based; design: dose 50 mg/kg, route oral; settings: in vivo
MX1 [8] = assay: Potentiation of 5-FU induced antitumour activity against human MX1 cells xenografted in Balb/cA JcL-nu mouse assessed as tumor growth inhibition at 300 mg/kg/day, po for 14 days co-treated with 5-FU at 15 mg/kg/day for 14 days and measured twice weekly relative to untreated control; type: functional
MX1 [9] = assay: Antitumor activity against human MX1 cells xenografted in Balb/cA JcL-nu mouse assessed as tumor growth inhibition at 300 mg/kg/day, po for 14 days and measured twice a week relative to untreated control; type: functional; settings: MX1, 336 h
Mus musculus [10] = assay: Toxicity in Balb/cA JcL-nu mouse xenografted with human MX1 cells assessed as body weight loss at 300 mg/kg/day, po for 14 days co-treated with 5-FU at 15 mg/kg/day for 14 days and measured twice a week relative to untreated control; type: organism-based; settings: in vivo, 336 h
MX1 [11] = assay: Antitumor activity against human MX1 cells xenografted in Balb/cA JcL-nu mouse assessed as tumor growth inhibition at 15 mg/kg/day, […] as continuous infusion using osmotic pump and measured twice a week relative to untreated control; type: functional

| Structure (SMILES) | IC50 [1] [nM] | further results |
| --- | --- | --- |
| O=c1ccn(CCCCc2cnnn2CCc2cccc(OCC3CC3)c2)c(=O)[nH]1 | 210 | EC50 [2]: 84000 nM |
| C[C@@H](Cn1nncc1CCCCn1ccc(=O)[nH]c1=O)c1cccc(OCC2CC2)c1 | 58 |  |
| C[C@H](Cn1nncc1CCCCn1ccc(=O)[nH]c1=O)c1cccc(OCC2CC2)c1 | 870 |  |
| CC[C@@H](Cn1nncc1CCCCn1ccc(=O)[nH]c1=O)c1cccc(OCC2CC2)c1 | 29 | half-life [3]: 30 min; Stability (Mus musculus [4]): Unstable; AUC(0-t) [5]: 4.56 µM·h; Cmax [6]: 8.69 µM; EC50 [2]: 22000 nM; Tmax [7]: 30 min |
| CC[C@H](Cn1nncc1CCCCn1ccc(=O)[nH]c1=O)c1cccc(OCC2CC2)c1 | 720 |  |
| CC[C@@](O)(Cn1nncc1CCCCn1ccc(=O)[nH]c1=O)c1cccc(OCC2CC2)c1 | 150 | half-life [3]: 60 min; AUC(0-t) [5]: 67.4 µM·h; Cmax [6]: 62.1 µM; Tmax [7]: 30 min |
| CC[C@@](O)(Cn1nncc1CCCCn1ccc(=O)[nH]c1=O)c1cccc(OC2CCCC2)c1 | 210 |  |
| CCOc1cccc([C@@](O)(CC)Cn2nncc2CCCCn2ccc(=O)[nH]c2=O)c1 | > 1000 |  |
| CC[C@@](O)(Cn1nncc1CCCCn1ccc(=O)[nH]c1=O)c1cccc(OCC2(C)CC2)c1 | 630 |  |
| CC[C@@](O)(Cn1nncc1CCCCn1ccc(=O)[nH]c1=O)c1cccc(OCC(C)C)c1 | 550 |  |
| C=CCOc1cccc([C@@](O)(CC)Cn2nncc2CCCCn2ccc(=O)[nH]c2=O)c1 | 360 |  |
| CC[C@@](O)(Cn1nncc1CCCCn1ccc(=O)[nH]c1=O)c1cccc(OC2CCOCC2)c1 | > 1000 |  |
| CC[C@@](O)(Cn1nncc1CCCCn1ccc(=O)[nH]c1=O)c1cccc(OCC2CCC2)c1 | 150 |  |
| CC[C@](O)(Cn1nncc1CCCCn1ccc(=O)[nH]c1=O)c1cccc(OCC2CC2)c1 | > 1000 |  |
| CC[C@@](O)(Cn1nncc1CCOCn1ccc(=O)[nH]c1=O)c1cccc(OCC2CC2)c1 | 170 |  |
| CC[C@@](O)(Cn1nncc1CCCCn1ccc(=O)[nH]c1=O)c1ccc(F)c(OCC2CC2)c1 | 67 | half-life [3]: 60 min; Stability (Mus musculus [4]): Stable; AUC(0-t) [5]: 57.3 µM·h; inhibition (INH) (MX1 [8]): 84.9%; Cmax [6]: 49.8 µM; inhibition in vivo at 300 mg/kg/day (MX1 [9]): -23.2%; Activity (Mus musculus [10]): Non-toxic; EC50 [2]: 41000 nM; Tmax [7]: 60 min |
| CC[C@](O)(Cn1nncc1CCCCn1ccc(=O)[nH]c1=O)c1ccc(F)c(OCC2CC2)c1 | 350 |  |
| O=c1ccn(CCCc2cnnn2CC(c2ccccc2)c2ccccc2)c(=O)[nH]1 | 1300 | EC50 [2]: > 100000 nM |
| O=c1ccn(CCCCc2cnnn2CC(c2ccccc2)c2ccccc2)c(=O)[nH]1 | 740 |  |
| O=c1ccn(CCCc2cnnn2C(c2ccccc2)c2ccccc2)c(=O)[nH]1 | > 10000 |  |
| O=c1ccn(CCCCc2cnnn2C(c2ccccc2)c2ccccc2)c(=O)[nH]1 | 1600 |  |
| O=c1ccn(CCCc2cnnn2CCc2ccccc2)c(=O)[nH]1 | > 10000 |  |
| O=c1ccn(CCCCc2cnnn2CCc2ccccc2)c(=O)[nH]1 | 3500 |  |
| COc1ccccc1CCn1nncc1CCCCn1ccc(=O)[nH]c1=O | 5700 |  |
| COc1cccc(CCn2nncc2CCCCn2ccc(=O)[nH]c2=O)c1 | 4100 |  |
| COc1ccc(CCn2nncc2CCCCn2ccc(=O)[nH]c2=O)cc1 | > 10000 |  |
| O=c1ccn(CCCCc2cnnn2CCc2ccccc2OCC2CC2)c(=O)[nH]1 | 390 |  |
| O=c1[nH]cc(F)c(=O)[nH]1 [FLUOROURACIL] |  | inhibition in vivo at 15 mg/kg/day (MX1 [11]): 20% |
